In US10696686B2, “Herbicidally active (alkynyl-phenyl)-substituted cyclic dione compounds and derivatives thereof” (Syngenta Limited, priority 2013, dated 2020):

What was measured:
Test in all cases: Biological Example 3 glasshouse assay using various adjuvant systems, post-emergence foliar spray
Type in all cases: in vivo
[1] = system: Zea mays (ZEAMX, maize, corn) cultivar Garland; conditions: 8 g/ha
Method: (§1) Post-emergence foliar spray application, 200 L/ha, usually one or two replicates for the weeds (depending on application rate), and two replicates for soybean.
(§2) Standard warm conditions (tropical), in glasshouse. Specifically, the glasshouse bay conditions are 24° C./18° C. day/night; 16/8 hours light/dark; 65% humidity.
(§3) The herbicidal application takes place at the following growth stages for plants which include inter alia one or more of the following plants (usually the herbicidal application takes place on at least the following plants: DIGSA, ELEIN, SETFA, ZEAMX, GLXMA Nikko, and GLXMA TMG133, and often also either BRADC or BRAPP):
Zea mays (ZEAMX, maize/corn, e.g. can occur as volunteer corn) cultivar “Garland”—growth stage 12 or 13
(§4) Each test compound is applied with one of the following adjuvant systems (all percentages are final concentrations in the aqueous spray mixture):
(§5) Adjuvant system 1: 0.5% v/v Adigor™ *, 1.0% v/v AMS (ammonium sulphate) and 12.5% v/v IPA (isopropyl alcohol).
(§6) Adjuvant system 1A: 0.5% v/v Adigor™ * and 12.5% v/v IPA (isopropyl alcohol).
(§7) CAS Registry no. 166412-78-8), and is usually available from BASF. “Isononyl” in this context is thought to mean a mixture of two or more branched isomers of C9H19. […] A visual assessment of the % herbicidal damage is made 7 and 14 Days After herbicide Application (DAA) (or, in a minority of cases, 7 and 15 DAA), and the results are recorded as % visual herbicidal damage where 0%=no damage to plants and 100%=plant totally killed. *** Adjuvant system=either Adigor™ or Hexamoll DINCH™ or tris-(2-ethylhexyl) phosphate each at 0.5% v/v, and 12.5% v/v IPA (isopropyl alcohol), and 1.0% v/v AMS (ammonium sulphate); or 0.5% v/v Adigor™ and 12.5% v/v IPA (isopropyl alcohol); all percentages are final concentrations in the aqueous spray mixture. […]

[2] = system: Setaria faberi (SETFA); conditions: 8 g/ha
Method: as §1, §2, §3
Setaria faberi (SETFA)—growth stage 12 or 13
as §4, §5, §6
(§8) CAS Registry no. […] A visual assessment of the % herbicidal damage is made 7 and 14 Days After herbicide Application (DAA) (or, in a minority of cases, 7 and 15 DAA), and the results are recorded as % visual herbicidal damage where 0%=no damage to plants and 100%=plant totally killed. *** Adjuvant system=either Adigor™ or Hexamoll DINCH™ or tris-(2-ethylhexyl) phosphate each at 0.5% v/v, and 12.5% v/v IPA (isopropyl alcohol), and 1.0% v/v AMS (ammonium sulphate); or 0.5% v/v Adigor™ and 12.5% v/v IPA (isopropyl alcohol); all percentages are final concentrations in the aqueous spray mixture. […]
The percentages of herbicidal damage/plant control, at 14 Days After herbicide Application (DAA) (or, in a minority of cases, at 15 DAA), for the Compounds tested and for some of the plants tested, were in the following percentage ranges. […] Phytotoxicity on Glycine max (GLXMA, Soybean) Cultivar “TMG133” Glycine max (GLXMA, soybean) cultivar “TMG133” is Roundup Ready™ glyphosate-tolerant soybean cultivar TMG133, and is typically available from Monsanto in Brazil.

[3] = system: Brachiaria decumbens (BRADC); conditions: 8 g/ha
Method: as §1, §2, §3
Brachiaria decumbens (BRADC)—growth stage (GS) 12 or 13 (or GS 12)—or, if BRADC is not used, then usually Brachiaria platyphylla (BRAPP)—growth stage 12 or 13
as §4, §5, §6, §7

[4] = system: Glycine max (GLXMA, soybean) cultivar TMG133
Method: as §1, §2, §3
Glycine max (GLXMA, soybean) cultivar “TMG133”—which is Roundup Ready™ glyphosate-tolerant soybean cultivar TMG133 (typically available from Monsanto in Brazil)—growth stage: 1st trifoliate.
as §4, §5, §6
CAS Registry no. 166412-78-8), and is usually available from BASF. “Isononyl” in this context is thought to mean a mixture of two or more branched isomers of C9H19. Method: Seeds of the weed (including volunteer) plants, typically including inter alia Digitaria sanguinalis (DIGSA), Eleusine indica (ELEIN), Setaria faberi (SETFA), Zea mays (ZEAMX, corn), and sometimes also [either Brachiaria decumbens (BRADC) or Brachiaria platyphylla (BRAPP)], are sown in seed trays (troughs) containing clay loam soil (pH 7.0, 2.2% organic matter, “Trough Mix A”); and soybean seed is sown in pots containing the same soil with 3 soybean seedlings per pot. The plants are sprayed with the test herbicide when they reach the growth stages mentioned above. The test herbicidal solutions are prepared by mixing the appropriate aliquots of the test substance(s) and one of the adjuvant systems indicated above *** in deionised water to give the desired treatment concentration. The herbicidal application is made as a foliar spray, using a tracksprayer. Following the herbicidal application, the plants are watered twice per day for the duration of the test. A visual assessment of the % herbicidal damage is made 7 and 14 Days After herbicide Application (DAA) (or, in a minority of cases, 7 and 15 DAA), and the results are recorded as % visual herbicidal damage where 0%=no damage to plants and 100%=plant totally killed. *** Adjuvant system=either Adigor™ or Hexamoll DINCH™ or tris-(2-ethylhexyl) phosphate each at 0.5% v/v, and 12.5% v/v IPA (isopropyl alcohol), and 1.0% v/v AMS (ammonium sulphate); or 0.5% v/v Adigor™ and 12.5% v/v IPA (isopropyl alcohol); all percentages are final concentrations in the aqueous spray mixture.
Compounds A8, A11 and A17, which are compounds of formula (I) according to the present invention, were tested in a test method substantially as described above.
Compound A8 was tested using the 0.5% v/v Adigor™+12.5% v/v IPA adjuvant system. Compounds A11 and A17 were tested using the 0.5% v/v Adigor™+1.0% v/v AMS+12.5% v/v IPA adjuvant system.
The percentages of herbicidal damage/plant control, at 14 Days After herbicide Application (DAA) (or, in a minority of cases, at 15 DAA), for the Compounds tested and for some of the plants tested, were in the following percentage ranges. […]

[5] = system: Digitaria sanguinalis (DIGSA); conditions: 8 g/ha
Method: as §1, §2, §3
Digitaria sanguinalis (DIGSA)—growth stage 12 or 13
as §4, §5, §6, §8
The percentages of herbicidal damage/plant control, at 14 Days After herbicide Application (DAA) (or, in a minority of cases, at 15 DAA), for the Compounds tested and for some of the plants tested, were in the following percentage ranges. […] Phytotoxicity on Glycine max (GLXMA, Soybean) Cultivar “TMG133” Glycine max (GLXMA, soybean) cultivar “TMG133” is Roundup Ready™ glyphosate-tolerant soybean cultivar TMG133, and is typically available from Monsanto in Brazil. […]

[6] = 14 DAA, adjuvant 0.5% v/v Adigor + 12.5% v/v IPA
[7] = 14 DAA (A11: 14 or 15 DAA), adjuvant 0.5% v/v Adigor + 1.0% v/v AMS + 12.5% v/v IPA

C#CCC1CC(=O)C(c2c(F)cc(C#CC)cc2OC)C1=O (centres unmarked) [Compound A8, 2-(2-fluoro-6-methoxy-4-prop-1-ynyl-phenyl)-4-prop-2-ynyl-cyclopentane-1,3-dione]
percentage control of (phytotoxicity on) Zea mays (ZEAMX, maize, corn) [1, 6]: 65% | percentage control of (phytotoxicity on) Setaria faberi (SETFA) [2, 6]: 75% | percentage control of (phytotoxicity on) Brachiaria decumbens (BRADC) [3, 6]: 0% | percentage phytotoxicity on Glycine max (GLXMA, soybean) cultivar TMG133 ([4]; 120 g/ha, 14 DAA, adjuvant 0.5% v/v Adigor + 12.5% v/v IPA): 17.5% | percentage control of (phytotoxicity on) Digitaria sanguinalis (DIGSA) [5, 6]: 65%

CC#Cc1cc(F)c(C2C(=O)CC(CCSC)CC2=O)c(OC)c1 (centres unmarked) [Compound A11]
percentage control of Zea mays (ZEAMX, maize, corn) [1, 7]: 0% | percentage control of Setaria faberi (SETFA) [2, 7]: 0% | percentage control of (phytotoxicity on) Brachiaria decumbens (BRADC) [3, 7]: 0% | percentage phytotoxicity on Glycine max (GLXMA, soybean) cultivar TMG133 ([4]; 120 g/ha, 14 DAA (A11: 14 or 15 DAA), adjuvant 0.5% v/v Adigor + 1.0% v/v AMS + 12.5% v/v IPA): 5% | percentage phytotoxicity on Glycine max (GLXMA, soybean) cultivar TMG133 ([4]; 240 g/ha, 14 DAA (A11: 14 or 15 DAA), adjuvant 0.5% v/v Adigor + 1.0% v/v AMS + 12.5% v/v IPA): 5% | percentage control of Digitaria sanguinalis (DIGSA) [5, 7]: 0%
